Experimental data from paper PMC11145868, “Protein target similarity is positive predictor of in vitro antipathogenic activity: a drug repurposing strategy for Plasmodium falciparum” (Journal of Cheminformatics, 2024).
Structures can show the parent of a compound that is named as a salt. Where two headings read alike, the source gives them in different places. Numbered stars: 1 amine (or outer) side, 2 acyl side, 3 side chain; on linkers, the order of the positions; unused ones are H or OH. Bridge positions count the residues as written; N and C are the ends. Square brackets hold non-standard residues; d marks the D form. Peptide text beside a SMILES is read from it. I, II: the chains in the order shown. Actinocin(9to1) = Cc1c2oc3c(C)ccc(C(=O)[*:1])c3nc-2c(C(=O)[*:2])c(N)c1=O; NMeV = CN[C@H](C(=O)O)C(C)C; Sar = CNCC(=O)O

Columns and labels:
P. falciparum Dd2-HLH [1] = assay: microbe, parasite or virus in culture; assay type: cell-based, Plasmodium falciparum
in vitro = settings: human
P. falciparum Dd2-HLH [2] = assay: microbe, parasite or virus in culture; assay type: cell-based, Plasmodium falciparum; remark: listed apart in the source
[3] = tested on: P. berghei-luciferase sporozoites; assay: microbe, parasite or virus in culture; assay type: cell-based, Plasmodium berghei
[4] = Mammalian cell cytotoxicity assay, HepG2 (CellTiter-Glo, 72 h); settings: human
HEK293T cells = assay: Mammalian cell cytotoxicity assay, HEK293T (CellTiter-Glo, 72 h); settings: read-out: HEK CC50
[5] = as above; settings: human, HEK293T cells
[6] = Plasmodium falciparum, DD2, 48 h, read-out: Blood stage 48h EC50
[7] = Plasmodium falciparum, DD2, 72 h, read-out: Blood stage 72h EC50
[8] = Plasmodium berghei, HepG2, liver-stage parasites, 48 hours in culture, read-out: Liver stage 48h EC50
[9] = P. falciparum blood-stage parasites, 48 hours in culture, read-out: Blood stage 48h EC50
[10] = P. falciparum blood-stage parasites, 72 hours in culture, read-out: Blood stage 72h EC50
[11] = liver-stage parasites, 48 hours in culture, read-out: Liver stage 48h EC50
[12] = Plasmodium falciparum, DD2, P. falciparum blood-stage parasites, 48 hours in culture, read-out: Blood stage 48h EC50
[13] = Plasmodium falciparum, DD2, P. falciparum blood-stage parasites, 72 hours in culture, read-out: Blood stage 72h EC50
[14] = Plasmodium berghei, liver-stage parasites, 48 h in culture, read-out: Liver 48 h EC50
[15] = Plasmodium falciparum, DD2, Hec50, 48 h, read-out: Blood stage 48 h EC50

Compound	EC50 (P. falciparum Dd2-HLH [1]; [6]) [nM]	CC50 (in vitro) [nM]	EC50 (P. falciparum Dd2-HLH [2]; [7]) [nM]	EC50 [3, 8] [nM]	EC50 (P. falciparum Dd2-HLH [1]; [9]) [nM]	EC50 (P. falciparum Dd2-HLH [2]; [10]) [nM]	EC50 [3, 11] [nM]	further results
CC[C@@]1(O)C[C@H](O[C@H]2C[C@H](N(C)C)[C@H](O[C@H]3C[C@H](O)[C@H](O[C@H]4CCC(=O)[C@H](C)O4)[C@H](C)O3)[C@H](C)O2)c2c(cc3c(c2O)C(=O)c2c(O)cccc2C3=O)[C@H]1C(=O)OC [Aclarubicin]	154	166	302	2230				
CO[C@H]1/C=C\C=C(/C)C(=O)NC2=CC(=O)C(NCCN(C)C)=C(C[C@@H](C)C[C@H](OC)[C@H](O)[C@@H](C)/C=C(\C)[C@@H]1OC(N)=O)C2=O [Alvespimycin hydrochloride]	159	164	273	129				
Cc1cc2c(C(N)=O)cccc2n1-c1nc2c(c(NCc3ccccc3)n1)COCC2 [CB-5083]	233	469	608					CC50 at 72 h [4]: 468 nM; EC50 ([3]; Plasmodium berghei, HepG2, 48 h, read-out: Liver stage 48h EC50): 540 nM
COc1cc2nc(-c3ccc(N4CCN(C)CC4)cc3)nc(NCCN3CCOCC3)c2cc1OC [CPG-52364]					100	381	1100	CC50 (HEK293T cells; HEK293T cells): 1640 nM
C[C@@H](Oc1cc(-c2cnn(C3CCNCC3)c2)cnc1N)c1c(Cl)ccc(F)c1Cl [Crizotinib]	225	> 9950	827	8520				
C[C@@H]1C[C@@H]([C@H](O)CC2CC(=O)NC(=O)C2)C(=O)[C@@H](C)C1 [Cycloheximide]		759		109				EC50 (P. falciparum Dd2-HLH [1]; [12]): 178 nM; EC50 (P. falciparum Dd2-HLH [2]; [13]): 301 nM
Cc1c2oc3c(C)ccc(C(=O)N[C@@H]4C(=O)N[C@H](C(C)C)C(=O)N5CCC[C@H]5C(=O)N(C)CC(=O)N(C)[C@@H](C(C)C)C(=O)O[C@@H]4C)c3nc-2c(C(=O)N[C@@H]2C(=O)N[C@H](C(C)C)C(=O)N3CCC[C@H]3C(=O)N(C)CC(=O)N(C)[C@@H](C(C)C)C(=O)O[C@@H]2C)c(N)c1=O [Dactinomycin, reference compound] (I: T[dV]P[Sar][NMeV] / II: T[dV]P[Sar][NMeV]; ester I:1-I:C, II:1-II:C; linker I:N-II:N via Actinocin(9to1))		9						EC50 (P. falciparum Dd2-HLH [1]; Plasmodium falciparum, DD2, blood-stage parasites, 48 h in culture, read-out: Blood stage 48 h EC50): 3 nM; EC50 (P. falciparum Dd2-HLH [2]; Plasmodium falciparum, DD2, blood-stage parasites, 72 h in culture, read-out: Blood stage 72 h EC50): 8 nM; CC50 at 72 h [4]: 3 nM; EC50 [3, 14]: 73 nM
NC(=O)C(c1ccccc1)(c1ccccc1)[C@@H]1CCN(CCc2ccc3c(c2)CCO3)C1 [Darifen/Acin Hydrobromide]	1430	> 9950	324	> 10000				CC50 at 72 h [4]: > 9990 nM
CS[C@H]1SC[C@H]2C(=O)N(C)[C@@H](C(C)C)C(=O)OC[C@@H](NC(=O)c3cnc4ccccc4n3)C(=O)N[C@@H](C)C(=O)N(C)[C@@H]1C(=O)N(C)[C@@H](C(C)C)C(=O)OC[C@@H](NC(=O)c1cnc3ccccc3n1)C(=O)N[C@@H](C)C(=O)N2C [Echinomycin]		1		2				EC50 (P. falciparum Dd2-HLH [2]; [13]): 3 nM; CC50 at 72 h [4]: 1 nM
Cc1ncc(NC(=O)c2ccc(CN3CCN(C)CC3)c(C(F)(F)F)c2)cc1Nc1nccc(-c2cccnc2)n1 [Flumatinib mesylate]					85	213	> 10000	CC50 (HEK293T cells; HEK293T cells): > 9950 nM
O=C(Nc1ccccc1)N[C@@H]1C(=O)N(CC23CC4CC(CC(C4)C2)C3)c2ccccc2N(c2ccccc2)C1=O [GV 150013]						253	> 10000	CC50 (HEK293T cells; HEK293T cells): > 9950 nM
O=C(CC1NCCCC1O)Cn1cnc2cc(Br)c(Cl)cc2c1=O (stereo not shown) [Halofuginone, reference compound]			1					EC50 (P. falciparum Dd2-HLH [1]; [15]): 1 nM; CC50 at 72 h (in vitro): 88 nM; EC50 [3, 14]: 70 nM
COC(=O)C[C@](O)(CCCC(C)(C)O)C(=O)O[C@@H]1C(OC)=C[C@]23CCCN2CCc2cc4c(cc2[C@H]13)OCO4 [Homoharringtonine, reference compound]		32	7					EC50 (P. falciparum Dd2-HLH [1]; [15]): 6 nM; EC50 [3, 14]: 26 nM
CC(=O)[C@]1(O)Cc2c(O)c3c(c(O)c2[C@@H](O[C@H]2C[C@H](N)[C@H](O)[C@H](C)O2)C1)C(=O)c1ccccc1C3=O [Idarubicin]	1870	36	302	843				
CCc1ccc(OCc2ccccc2C(=O)Nc2ccc3nc(C)cc(N)c3c2)cc1 [JTC-801]					123	635	429	CC50 (HEK293T cells; HEK293T cytotoxicity): 1810 nM
CN(C)c1ccc2c(c1)Sc1cc(N(C)C)ccc1N2 [Leuco methylthioninium]								EC50 (P. falciparum Dd2-HLH [1]; read-out: Blood stage 48h EC50): 96 nM; EC50 (P. falciparum Dd2-HLH [2]; read-out: Blood stage 72h EC50): 209 nM; CC50 (HEK293T cells; HEK293T cells): 3490 nM; EC50 ([3]; read-out: Liver stage 48h EC50): 3920 nM
CC(=O)O[C@H]1C(=O)[C@@]2(C)[C@H]([C@H](OC(=O)c3ccccc3)[C@]3(O)C[C@H](OC(=O)[C@H](O)[C@@H](NC(=O)c4ccccc4)c4ccccc4)C(C)=C1C3(C)C)[C@]1(OC(C)=O)CO[C@@H]1C[C@@H]2O [Paclitaxel]	164		186	7530				CC50 at 72 h [5]: > 9950 nM; CC50 at 72 h ([4]; HepG2 cells): 7040 nM

Compound	EC50 (P. falciparum Dd2-HLH [1]; [6]) [nM]	CC50 (in vitro) [nM]	EC50 (P. falciparum Dd2-HLH [2]; [7]) [nM]	EC50 [3, 8] [nM]	EC50 (P. falciparum Dd2-HLH [1]; [9]) [nM]	EC50 (P. falciparum Dd2-HLH [2]; [10]) [nM]	EC50 [3, 11] [nM]	further results
Cc1[nH]c2ccccc2c1CCNCc1ccc(/C=C/C(=O)NO)cc1 [Panobinostat Lactate]					20	51	131	CC50 (HEK293T cells; HEK293T cells): 78 nM
COc1ccc(C[C@H](N)C(=O)N[C@H]2[C@@H](O)[C@H](n3cnc4c(N(C)C)ncnc43)O[C@@H]2CO)cc1 [Puromycin]	61		125	840				CC50 at 72 h [5]: 1240 nM; CC50 at 72 h ([4]; HepG2 cells): 498 nM
CN1CCC(CNc2ccc3ncc(-c4cccc(OC(F)(F)F)c4)n3n2)CC1 [SGI-1776]	482		623	1790				CC50 at 72 h [5]: 4580 nM; CC50 at 72 h ([4]; HepG2 cells): 1040 nM
CN(c1ccc(Cl)cc1)c1cc[n+](Cc2ccc(-c3ccc(C[n+]4ccc(N(C)c5ccc(Cl)cc5)c5ccccc54)cc3)cc2)c2ccccc12 [TCD-717]	63		714	102				CC50 at 72 h [5]: 1930 nM; CC50 at 72 h ([4]; HepG2 cells): 4770 nM
Cc1cc(-c2cc(OC(=O)c3ccccc3)ccc2Cl)cc2nnc(Nc3ccc(OCCN4CCCC4)cc3)nc12 [TG-100801]					68	205	1410	CC50 (HEK293T cells; HEK293T cytotoxicity): > 9950 nM
Cc1ccc(CCCO)c(NCc2ccc3nc(NCCCN4CCOCC4)n(Cc4nc(C)ccc4O)c3c2)c1 [TMC-353121]					319	650	> 10000	CC50 (HEK293T cells; HEK293T cells): > 9950 nM
N[C@@H]1[C@H]2CN(c3nc4c(cc3F)c(=O)c(C(=O)O)cn4-c3ccc(F)cc3F)C[C@@H]12 [Trovafloxacin mesilate, reference compound]		> 9950	669	> 10000				EC50 (P. falciparum Dd2-HLH [1]; Plasmodium falciparum, DD2, read-out: EC50, antiplasmodial drug sensitivity assays in bloodstage): 9950 nM
O=C1c2ccccc2-n2c1nc1ccccc1c2=O [Tryptanthrin]	737	> 9950	562	41				
CN[C@@H]1C[C@H]2O[C@@](C)([C@@H]1OC)n1c3ccccc3c3c4c(c5c6ccccc6n2c5c31)C(=O)N[C@H]4O [UCN-01]					79	488	2150	CC50 (HEK293T cells; HEK293T cytotoxicity): 74 nM
CC[C@]1(O)C[C@@H]2CN(CCc3c([nH]c4ccccc34)[C@@](C(=O)OC)(c3cc4c(cc3OC)N(C)[C@H]3[C@@](O)(C(N)=O)[C@H](O)[C@]5(CC)C=CCN6CC[C@]43[C@@H]65)C2)C1 [Vindesine]	14		20	837				CC50 at 72 h [5]: > 9950 nM; CC50 at 72 h ([4]; HepG2 cells): > 9990 nM
Cc1nc(N2CCN(Cc3ccc(F)cc3)C2=O)sc1C(=O)NCc1cccnc1 [XEN-723]					158	334	> 10000	CC50 (HEK293T cells; HEK293T cells): 57 nM
COc1cc2c(Nc3ccc(NC(=O)c4ccccc4)cc3)ncnc2cc1OCCCN1CCOCC1 [ZM447439]					452	643	4330	CC50 (HEK293T cells; HEK293T cytotoxicity): > 9950 nM
COC1=C(C)C(=O)C2=C(C1=O)[C@@H](COC(N)=O)[C@@]1(OC)[C@H]3N[C@H]3CN21 [mitomycin A, reference compound]				1360				EC50 (P. falciparum Dd2-HLH [1]; [12]): 38 nM; EC50 (P. falciparum Dd2-HLH [1]; Plasmodium falciparum, DD2, stage and incubation time not given, read-out: EC50 (antiplasmodial, quoted in discussion from Supplementary Table 1)): 37.7 nM; EC50 (P. falciparum Dd2-HLH [2]; [13]): 18 nM; CC50 at 72 h [5]: 362 nM; CC50 at 72 h ([4]; HepG2 cells): 32 nM
CN(C)Cc1ccc(S(=O)(=O)n2ccc(/C=C/C(=O)NO)c2)cc1 [resminostat, reference compound]			697	7060				EC50 (P. falciparum Dd2-HLH [1]; Plasmodium falciparum, DD2, read-out: EC50 (antiplasmodial, quoted in discussion from Supplementary Table 1)): 431 nM; CC50 at 72 h [5]: 3550 nM; CC50 at 72 h ([4]; HepG2 cells): 1200 nM
SN-38					507	358	1010	CC50 (HEK293T cells; HEK293T cells): 79 nM
XL-888					201	348	99	CC50 (HEK293T cells; HEK293T cytotoxicity): 47 nM
